Assay results published in ChEMBL document CHEMBL1201862, “PubChem BioAssay data set” (2004).
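Method: 48-hour compound exposure of cells in 96-well plates, five concentrations, linear interpolation of endpoints. GI50: concentration for 50% inhibition of growth.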 Calls of active or inactive are those of the source. Rule as the data show it: active = GI50 up to about 1.1 µM and inactive = higher.

Key:
Assay in all cases: NCI-60 cell line screen, 48 h
[1] = test system: CCRF-CEM
[2] = test system: COLO 205
[3] = test system: HCT-15
[4] = test system: HT-29
[5] = test system: LOX IMVI
[6] = test system: M14
[7] = test system: MOLT-4
[8] = test system: NCI-H226
[9] = test system: NCI-H522
[10] = test system: OVCAR-3
[11] = test system: OVCAR-8
[12] = test system: SF-268
[13] = test system: SF-539
[14] = test system: SK-MEL-28
[15] = test system: TK-10
[16] = test system: U-251
[17] = test system: KM12
[18] = test system: OVCAR-4
[19] = test system: RXF 393
[20] = test system: UACC-257

SMILES	GI50 [1]	GI50 [2]	GI50 [3] [µM]	GI50 [4]	GI50 [5]	GI50 [6]	GI50 [7]	GI50 [8]	GI50 [9]	GI50 [10]	GI50 [11]	GI50 [12]	GI50 [13]	GI50 [14]	GI50 [15]	GI50 [16]	GI50 [17]	GI50 [18]	GI50 [19]	GI50 [20]
COc1cc2c(cc1OC)C(Cl)C(c1ccc(Cl)c(Cl)c1)=C2Cl (stereo not drawn)	3.02 µM (inactive)	10.7 µM (inactive)	3.33	4.38 µM (inactive)	2.24 µM (inactive)	9.4 µM (inactive)	2.92 µM (inactive)	8.99 µM (inactive)	66.4 µM (inactive)	4.18 µM (inactive)	6.62 µM (inactive)	6.21 µM (inactive)	10.3 µM (inactive)	12 µM (inactive)	20.7 µM (inactive)	4.71 µM (inactive)	–	–	–	–
COc1ccc(C2SCC(=O)N2NC(=O)c2ccncc2)cc1F (stereo not drawn)	–	> 100 µM (inactive)	> 100	> 100 µM (inactive)	> 100 µM (inactive)	> 100 µM (inactive)	–	> 100 µM (inactive)	> 100 µM (inactive)	–	–	> 100 µM (inactive)	–	> 100 µM (inactive)	> 100 µM (inactive)	> 100 µM (inactive)	> 100 µM (inactive)	> 100 µM (inactive)	> 100 µM (inactive)	> 100 µM (inactive)
Nc1nc(SCc2ccc([N+](=O)[O-])cc2)nc2c1ncn2C1OC(COP(=O)(O)O)C(O)C1O (stereo not drawn)	> 100 µM (inactive)	> 100 µM (inactive)	> 100	> 100 µM (inactive)	> 100 µM (inactive)	> 100 µM (inactive)	> 100 µM (inactive)	> 100 µM (inactive)	> 100 µM (inactive)	> 100 µM (inactive)	> 100 µM (inactive)	> 100 µM (inactive)	> 100 µM (inactive)	> 100 µM (inactive)	> 100 µM (inactive)	> 100 µM (inactive)	> 100 µM (inactive)	> 100 µM (inactive)	> 100 µM (inactive)	> 100 µM (inactive)
O=C(OC1C=C=CS(=O)(=O)CC#C/C=C\1)c1cnc2ccccc2n1 (stereo not drawn)	> 100 µM (inactive)	63.7 µM (inactive)	48.4	> 100 µM (inactive)	29.8 µM (inactive)	> 100 µM (inactive)	50.7 µM (inactive)	> 100 µM (inactive)	25.7 µM (inactive)	> 100 µM (inactive)	> 100 µM (inactive)	> 100 µM (inactive)	> 100 µM (inactive)	> 100 µM (inactive)	> 100 µM (inactive)	84.1 µM (inactive)	> 100 µM (inactive)	> 100 µM (inactive)	> 100 µM (inactive)	> 100 µM (inactive)
COc1cc(/C=N\O)cc(/C=N/O)c1O	12.1 µM (inactive)	22.5 µM (inactive)	> 100	39.4 µM (inactive)	40.9 µM (inactive)	20 µM (inactive)	25.7 µM (inactive)	24.2 µM (inactive)	75.9 µM (inactive)	63 µM (inactive)	37.1 µM (inactive)	35.7 µM (inactive)	24.4 µM (inactive)	38.5 µM (inactive)	> 100 µM (inactive)	37.9 µM (inactive)	> 100 µM (inactive)	> 100 µM (inactive)	23.6 µM (inactive)	74 µM (inactive)
NC(=O)N/C=C1\C(=O)Oc2ccccc2C1=O	> 100 µM (inactive)	> 100 µM (inactive)	48.5	> 100 µM (inactive)	> 100 µM (inactive)	82.8 µM (inactive)	> 100 µM (inactive)	> 100 µM (inactive)	–	84.7 µM (inactive)	> 100 µM (inactive)	95.7 µM (inactive)	85.9 µM (inactive)	73.5 µM (inactive)	> 100 µM (inactive)	–	> 100 µM (inactive)	> 100 µM (inactive)	17.4 µM (inactive)	89.9 µM (inactive)
O=C(NN1C(=O)C(Cl)C1c1cccc(O)c1)c1ccccc1O (stereo not drawn)	> 100 µM (inactive)	–	> 100	> 100 µM (inactive)	> 100 µM (inactive)	> 100 µM (inactive)	> 100 µM (inactive)	> 100 µM (inactive)	> 100 µM (inactive)	> 100 µM (inactive)	> 100 µM (inactive)	> 100 µM (inactive)	> 100 µM (inactive)	> 100 µM (inactive)	> 100 µM (inactive)	> 100 µM (inactive)	> 100 µM (inactive)	> 100 µM (inactive)	> 100 µM (inactive)	> 100 µM (inactive)
